Test results from patent publication US11844790B2, “Methods of treating hidradenitis suppurativa” (CHEMOCENTRYX, INC., priority 2020, dated 2023).
Marks after values point to notes of the source that are not given here.

How the values were obtained:
[1] = system: patients with moderate HS (Hurley Stage II) or severe HS (Hurley Stage III); experiment: Phase II AURORA clinical trial, Hidradenitis Suppurativa Clinical Response (HiSCR) and secondary efficacy endpoints; type: in vivo, human; settings: for HiSCR (%) / HiSCR n/N / HiSCR Δ % vs placebo: week 12
Protocol: (§1) The study is a randomized, double-blind, placebo-controlled, three group Phase 2 trial in approximately 390 subjects with moderate to severe hidradenitis suppurativa (Hurley stage II or III). Subjects will be randomized 1:1:1 to a treatment of 10 mg Avacopan twice daily, 30 mg Avacopan twice daily or placebo for 12 weeks. Other systemic treatments for HS including anti-TNF-αtreatments are prohibited. Stable antibiotic therapy with doxycycline or minocycline is allowed as specified in the protocol. Subjects treated with 10 mg or 30 mg twice daily during the blinded, placebo-controlled 12-week treatment period will be followed by an additional 24-week, active treatment period during which they will continue to receive the same dose regimen, either 10 mg or 30 mg Avacopan twice daily. Subjects on placebo who complete the blinded, placebo-controlled 12-week period will be re-randomized 1:1 to receive 10 mg or 30 mg Avacopan twice daily during the 24-week active treatment period. During the 24-week active treatment period the treatment assignment to 10 mg or 30 mg twice daily will not be disclosed to the patient, study personnel at the site or the sponsor. Thereafter, all subjects will be followed without study drug for 8 weeks before they exit the study.
Subjects will be randomized 1:1:1 to receive 10 mg Avacopan twice daily, 30 mg Avacopan twice daily or matching placebo for 12 weeks in a double-blind, placebo-controlled manner.
(§2) The primary objectives of this clinical trial include: • 1. Evaluation of the efficacy of Avacopan compared to placebo in subjects with Hurley Stage II or III hidradenitis suppurativa (HS) based on subjects achieving a Hidradenitis Suppurativa Clinical Response (HiSCR) after 12 weeks of treatment. HiSCR is defined as at least a 50% reduction in abscess and inflammatory nodule (AN) count with no increase in abscess count and no increase in draining fistula count at Week 12 relative to baseline. • 2. Evaluation of the safety of Avacopan compared to placebo in these subjects based on the adverse event incidence, changes from baseline in laboratory parameters, and vital signs Secondary Objectives
The secondary objectives of this study include: • 1. Evaluation of the efficacy of Avacopan compared to placebo in these subjects include: • a. HiSCR: proportion of subjects achieving HiSCR by each timepoint, • b. The subject's global assessment of skin pain numeric rating scale (NRS), • c. The modified Sartorius score, and • d. Achieving an AN count of 0, 1, or 2 • 2. Assessment of subject reported outcomes including health-related quality-of-life changes based on the Short Form-36 version 2 (SF-36 v2), the EuroQOL-5D-5L (EQ-5D-5L), Hidradenitis Suppurativa Quality of Life (HiSQOL) Index, the Dermatology Life Quality Index (DLQI), and the Work Productivity and Activity Impairment Questionnaire: Specific Health Problem (WPAI: SHP) with Avacopan compared to placebo. • 3. Evaluation of the pharmacokinetic profile of Avacopan in subjects with HS. • 4. Evaluation of the safety and efficacy of Avacopan treatment from Day 1 by each timepoint up to Week 44 in subjects with HS. • 5. Evaluation of the efficacy of avacopan compared to placebo in these subjects include: • a. The Sartorius score, International HS Severity Scoring System (IHS4) score, HS Physician Global Assessment (HS-PGA), • b. Proportion of subjects who experienced flare, who experienced loss of response during Period 2, who received oral antibiotic rescue therapy or lesion intervention, and who received disallowed opioid pain therapy, and • c. The duration of flare in days. • 6. Evaluation of health-economic information. Study Treatments
The International Hidradenitis Suppurativa Severity Score (IHS4) is simple to calculate and validated with the use of existing physician-derived outcomes such as HS-PGA, Hurley classification, MSS or Expert Opinion classification) and patient-reported outcome measure (DLQI). […]

[2] = system: patients with moderate-to-severe HS; settings: human, in vivo
Protocol: as §1, §2
The majority of TEAEs were related to underlying HS and were mild to moderate.

[3] = Solubility of Avacopan as a function of pH; type: physicochemical; settings: pH value of 3 or above (gastric fluid)
[4] = Avacopan 10 mg BID, All patients
[5] = Avacopan 10 mg BID, Hurley Stage II
[6] = Avacopan 10 mg BID, Hurley Stage III
[7] = Avacopan 30 mg BID, All patients
[8] = Avacopan 30 mg BID, Hurley Stage II
[9] = Avacopan 30 mg BID, Hurley Stage III

Cc1ccc(NC(=O)[C@H]2CCCN(C(=O)c3c(C)cccc3F)[C@H]2c2ccc(NC3CCCC3)cc2)cc1C(F)(F)F [Avacopan]
primary endpoint: proportion of all patients achieving HiSCR against placebo ([1]; 10 mg BID and 30 mg BID, combined study population (Hurley Stage II plus III), after 12 weeks): not achieved with statistical significance at either dose level | proportion of all patients achieving HiSCR against placebo ([1]; 30 mg BID, combined study population, after 12 weeks): numerical improvement | HiSCR response against placebo ([1]; 30 mg BID, pre-specified population of Hurley Stage III (severe) HS patients): statistically significant higher response than placebo | HiSCR (%) [1, 4]: (22.4) % | HiSCR n/N [1, 4]: 30/134 | HiSCR Δ % vs placebo [1, 4]: −8.2% | HiSCR (%) [1, 5]: (21.4) % | HiSCR n/N [1, 5]: 18/84 | HiSCR Δ % vs placebo [1, 5]: −13.8% | HiSCR (%) [1, 6]: (24.0) % | HiSCR n/N [1, 6]: 12/50 | HiSCR Δ % vs placebo [1, 6]: 1.8% | HiSCR (%) [1, 7]: (35.1) % | HiSCR n/N [1, 7]: 47/134 | HiSCR Δ % vs placebo [1, 7]: 4.4% | HiSCR (%) [1, 8]: (31.0) % | HiSCR n/N [1, 8]: 27/87 | HiSCR Δ % vs placebo [1, 8]: −4.3% | HiSCR (%) [1, 9]: (42.6) % | HiSCR n/N [1, 9]: 20/47 | HiSCR Δ % vs placebo ([1]; Avacopan 30 mg BID, Hurley Stage III, p = 0.0349): 20.3* % | AN (abscesses and inflammatory nodules) count, % change from baseline to week 12 relative to placebo ([1]; Hurley Stage III patients): Favorable reductions | International HS Severity Score (IHS4), % change from baseline to week 12 relative to placebo ([1]; Hurley Stage III patients): Favorable reductions | abscess count, % change from baseline to week 12 relative to placebo ([1]; Hurley Stage III patients): Favorable reductions | draining fistula count, % change from baseline to week 12 relative to placebo ([1]; Hurley Stage III patients): Favorable reductions | safety profile [2]: favorable safety profile | Serious TEAEs ([2]; 12 weeks): 1.5% | Treatment emergent adverse events (TEAEs) of all types ([2]; 12 weeks): 48.5% | solubility [3]: normally insoluble
